Experimental data from patent US9376420B2 (YUHAN CORPORATION, priority 2012, dated 2016).

Biological target: T1, human LXRβ (Homo sapiens, UniProt P55055)
T1 construct: expressed in transfected cells; host or cells: HEK293 cells (ATCC CRL-1573), transient transfection with pFA-hLXRβ/GAL4 and pUAS
T1 sequence (P55055 222-460 limits assumed): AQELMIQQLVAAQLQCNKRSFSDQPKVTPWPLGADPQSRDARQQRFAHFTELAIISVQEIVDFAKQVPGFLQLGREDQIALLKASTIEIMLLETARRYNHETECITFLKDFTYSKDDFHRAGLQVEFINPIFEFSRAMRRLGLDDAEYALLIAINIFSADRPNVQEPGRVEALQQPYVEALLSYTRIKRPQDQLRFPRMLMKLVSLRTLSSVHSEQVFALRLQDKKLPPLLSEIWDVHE
Test: Assay for Transcriptional Activity of LXRβ (GAL4-hLXRβ LBD luciferase reporter, transient transfection)
Assay type: cell-based
Settings: HEK293 cells transfected with pFA-hLXRβ/GAL4 and pUAS, 24 hours; for Emax: fold value in comparison with the control (DMSO-treated group); for EC50: increase of transcriptional activity of LXRβ, average of three independent tests
Excerpt: The ligand-binding domain (LBD) cDNA of human LXRβ was inserted into an expression vector (pFA, Stratagene, USA) site adjacent to the yeast GAL4 transcription factor DNA binding domain to prepare an expression construct (pFA-hLXRβ/GAL4) (Willey et al., Genes & Development 9 1033-1045 (1995). The GAL4-responsive luciferase reporter plasmid, i.e., pUAS (Stratagene, USA), contained five copies of the GAL4 response element placed adjacent to the promoter and the luciferase reporter gene. The pFA-hLXRβ/GAL4 and pUAS were introduced into mammalian cells through transient transfection, followed by measuring the transcriptional activity of LXRβ.
HEK293 cells (human kidney cells, sATCC, CRL-1573) were incubated at a T-75 flask containing a DMEM supplemented with 10% fetal bovine serum (FBS) in a 37° C., until they reach about 70˜80% confluency. The culture media containing the cells was added to each well of a 96-well plate in a density of 5×10^4 cells per well. The pFA-hLXRβ/GAL4 and pUAS was transfected to the cells using a cationic-lipid transfection reagent (Lipofectamine™, Invitrogen), through culturing at 37° C. for 3 hours for transient transfection according to the manufacturer's instruction. The test compounds were dissolved in dimethyl sulfoxide (DMSO) in the concentrations of 50, 30, 10, 3, 1, 0.3, 0.1, 0.03, and 0.01 μM and then cells were treated with the prepared compound-containing solution (100 μl). The cells were incubated at 37° C. for 24 hours. After removal of the medium from each well, the lysis buffer (25 mM Tricine pH7.8, 2 mM DTT, 2 mM EGTA, 10% glycerol, 1% Triton X-100) was added with the amount of 20 μl per each well, and the plate was stirred at room temperature for 15 minutes. The luciferase reagent (prepared by adding 10 ml of the luciferase buffer (Promega) to 1 vial of the luciferase substrate (Promega)) was added to each well with the amount of 100 μl per well, followed by assaying with a luminometer according to the manufacturer's instruction.
The dose-response curve for calculating the EC50 values of the test compounds on the increase of transcriptional activity of LXRβ was prepared using the known LXR agonist (i.e., N-(2,2,2-trifluoro-ethyl)-N-[4-(2,2,2-trifluoro-1-hydroxy-1-trifluoromethyl-ethyl)-phenyl]-benzenesulfonamide) as a positive control and the vehicle (DMSO) as a negative control. The dose-response curve was produced from the 9-point curve having different concentrations at a 1/2 log unit. The EC50 value of a test compound, which is defined as a concentration for initiating the reaction corresponding to the half value between the Top value (i.e., the maximum value) and the Bottom value (baseline), was calculated according to the following equation. Y=Bottom+(Top-Bottom)/(1+10^((log EC50-X)*Hill Slope)).
In the above equation, Y is the observed value; X is the log concentration; Hill Slope is the slope of the curve; and Top and Bottom are the maximum value of test compound and the baseline value, respectively.
The following tables 1 and 2 show the EC50 values of the test compounds measured as in the above. In the tables 1 and 2, each EC50 value represents an average value obtained from three independent tests.

Compound	Emax [fold]	EC50 [nM]
Fc1ccc(N2N=C(C(F)(F)C(F)(F)F)CC2c2cccc(-c3ccc(C(F)(F)F)nc3)c2)c(F)c1 (stereo not shown) [Example 72, 1-(2,4-difluoro-phenyl)-3-pentafluoroethyl-5-(3-(2-trifluoromethyl-pyridin-5-yl)-phenyl)-4,5-dihydro-1H-pyrazole]	9	15200
COc1ncc(-c2cccc(C3CC(C(F)(F)C(F)(F)F)=NN3c3ccc(F)cc3F)c2)cc1C=O (stereo not shown) [Example 73, 1-(2,4-difluoro-phenyl)-5-(3-(3-formyl-2-methoxy-pyridin-5-yl)-phenyl)-3-pentafluoroethyl-4,5-dihydro-1H-pyrazole]	13	1070
Fc1cncc(-c2cccc(C3CC(C(F)(F)C(F)(F)F)=NN3c3ccc(F)cc3F)c2)c1 (stereo not shown) [Example 74, 1-(2,4-difluoro-phenyl)-5-(3-(5-fluoro-pyridin-3-yl)-phenyl)-3-pentafluoroethyl-4,5-dihydro-1H-pyrazole]	29	2960
COc1ncccc1-c1cccc(C2CC(C(F)(F)C(F)(F)F)=NN2c2ccc(F)cc2F)c1 (stereo not shown) [Example 75, 1-(2,4-difluoro-phenyl)-5-(3-(2-methoxy-pyridin-3-yl)-phenyl)-3-pentafluoroethyl-4,5-dihydro-1H-pyrazole]	63	1120
CS(=O)(=O)c1cc(-c2cccc(C3CC(C(F)(F)C(F)(F)F)=NN3c3ccc(F)cc3F)c2)cc(F)c1CO (stereo not shown) [Example 76, 1-(2,4-difluoro-phenyl)-5-[3′-fluoro-4′-(hydroxymethyl)-5′-(methylsulfonyl)-biphenyl-3-yl]-3-pentafluoroethyl-4,5-dihydro-1H-pyrazole]	84	189
CSc1ccc(-c2cccc(C3CC(C(F)(F)C(F)(F)F)=NN3c3ccc(F)cc3F)c2)cn1 (stereo not shown) [Example 77, 1-(2,4-difluoro-phenyl)-5-[3-(2-methylsulfanyl-pyridin-5-yl)-phenyl]-3-pentafluoroethyl-4,5-dihydro-1H-pyrazole]	57	7180
N#Cc1ccc(-c2cccc(C3CC(C(F)(F)C(F)(F)F)=NN3c3ccc(F)cc3F)c2)cn1 (stereo not shown) [Example 78, 5-[3-(2-cyano-pyridin-5-yl)-phenyl]-1-(2,4-difluoro-phenyl)-3-pentafluoroethyl-4,5-dihydro-1H-pyrazole]	25	2500
O=Cc1ccc(-c2cccc(C3CC(C(F)(F)C(F)(F)F)=NN3c3ccc(F)cc3F)c2)nc1 (stereo not shown) [Example 79, 1-(2,4-difluoro-phenyl)-5-[3-(5-formyl-pyridin-2-yl)-phenyl]-3-pentafluoroethyl-4,5-dihydro-1H-pyrazole]	46	747
CS(=O)(=O)c1ccc(-c2cccc(C3CC(C(F)(F)C(F)(F)F)=NN3c3ccc(F)cc3F)c2)nc1 (stereo not shown) [Example 81, 1-(2,4-difluoro-phenyl)-5-[3-(5-methanesulfonyl-pyridin-2-yl)-phenyl]-3-pentafluoroethyl-4,5-dihydro-1H-pyrazole]	78	1400
CN(CCCS(=O)(=O)c1ccc(-c2cccc(C3CC(C(F)(F)C(F)(F)F)=NN3c3ccc(F)cc3F)c2)cc1)C(=O)OC(C)(C)C (stereo not shown) [Example 86, 5-{4′-[3-(N-BOC-N-methyl-amino)-propane-1-sulfonyl]-biphenyl-3-yl}-1-(2,4-difluoro-phenyl)-3-pentafluoroethyl-4,5-dihydro-1H-pyrazole]	45	958
CN(C)S(=O)(=O)c1cccc(-c2cccc(C3CC(C(F)(F)C(F)(F)F)=NN3c3ccc(F)cc3F)c2)c1 (stereo not shown) [Example 87, 1-(2,4-difluoro-phenyl)-5-(3′-dimethylsulfamoyl-biphenyl-3-yl)-3-pentafluoroethyl-4,5-dihydro-1H-pyrazole]	46	91
